Experiments:
[1] = Liquid; for viscosity / mass density: 101 kPa; for viscosity: Concentric cylinders viscometry; for mass density: Vibrating tube method; for vapor or sublimation pressure: Closed cell (Static) method
[2] = wn = mass fraction of the nth substance listed; conditions: 101 kPa, Liquid; for viscosity: Concentric cylinders viscometry; for mass density: Vibrating tube method

CC(O)CN(C)C (stereo not drawn) [1-(dimethylamino)-2-propanol]
[1]
Conditions	mass density [kg/m3]	vapor or sublimation pressure [kPa]	viscosity [mPa·s]
298.15 K	845.4	–	1.332
298.49 K	–	4.13	–
303.15 K	840.3	–	1.183
303.88 K	–	6.59	–
308.15 K	835.5	–	1.059
308.43 K	–	8.03	–
313.15 K	830.7	–	0.955
313.34 K	–	10.34	–
318.15 K	825.8	–	0.866
318.26 K	–	12.51	–
323.15 K	820.9	–	0.788
323.6 K	–	15.84	–
328.15 K	816	–	0.72
328.26 K	–	18.73	–
333.04 K	–	23.06	–
333.15 K	811.1	–	0.662

CN(CCO)CCO [N-methyldiethanolamine]
[1]
Conditions	mass density [kg/m3]	viscosity [mPa·s]
298.15 K	1036.9	77.29
308.15 K	1029.8	44.99
323.15 K	1018.3	22.6

CN(CCO)CCO [N-methyldiethanolamine] + O
[2]
Conditions	mass density, 298.15 K [kg/m3]	mass density, 308.15 K [kg/m3]	mass density, 323.15 K [kg/m3]	viscosity, 298.15 K [mPa·s]	viscosity, 308.15 K [mPa·s]	viscosity, 323.15 K [mPa·s]
w1 = 0.2	1014.8	1010.6	1002.9	1.932	1.51	1.061
w1 = 0.3	1025.2	1021.1	1013.2	3.081	2.263	1.521
w1 = 1	1036.9	1029.8	1018.3	77.29	44.99	22.6
